Source: patent publication US12433876B2, “Septin inhibitors for treatment of cancers” (UNIVERSITY OF ROCHESTER, priority 2019, dated 2025)
Several values for one entry are separate records, joined by “and”; a condition that tells them apart may be missing. Equal entries are not always repeated.

How the values were obtained:
[1] = tested on: endometrial (ECC-1 and KLE) and ovarian (HCH-1, OVCAR-3, and SKOV-3) cancer cell lines; assay: MTS cell viability, gynecologic cancer cell line panel; format: cell-based
Method: Cell lines, Culture, and Reagents. Cells were maintained in either DMEM (SKOV-3, KLE, OVCAR-3, OVCAR8-C5 and IGROV-1) or RPMI-1640 (ECC-1 and HCH-1), supplemented with 10% fetal calf serum (or 20% for OVCAR-3), penicillin (100 units/mL), and streptomycin (100 μg/mL) at 37° C. with 5% CO2 in a humidified incubator. Antibodies were purchased from Abcam (septin-2; ab179436) and Cell Signaling Technology; ERK (9102), p-ERK (4370), -actin (3700), u-Tubulin (2144), EGFR (4267) and HER2 (4290). FCF was purchased from Abcam. All other chemicals were from Sigma Aldrich. Synthesis of Derivaties. […] The reaction was monitored using thin-layer chromatography plates with DCM-MeOH or pure ethyl acetate as eluent. Spots were monitored in a UV chamber. The reaction mixture, upon completion of the reaction, was poured into wet ice mixture and triturated, then the separated solid was filtered by vacuum. The product was washed with hexane, followed by diethyl ether, and was dried under vacuum. The compounds were characterized by spectrophotometric techniques. Quantitative Real-Time PCR. The indicated cell lines were transfected with siRNA targeting septin-2 or non-targeting control siRNA (Santa Cruz Biotechnology: sc-37007 or sc-40936) using Lipofectamine 3000 (Invitrogen). Tri reagent and Direct-zol kit (Zymo Research) were used to lyse and isolate total RNA. Reverse transcription was performed using iScript cDNA synthesis kit (BioRad), both following the manufacturer's recommendations. Quantitative real-time PCR was conducted using QuantStudio 12 K Flex Real-Time PCR System (ABI) and the Taqman Gene Expression Assay (ABI) consisting of the FAM-labeled probes as follows: SEPT2 (Hs01565417_ml); WFDC2 (Hs00899484_ml); TBP (Hs00427620_ml) or B2M (Hs00187842_ml), which was used as reference for normalization. Cell Viability, Proliferation and Apoptosis Assay. Cell viability, proliferation, and cellular apoptosis were measured using the MTS (Promega), BrdU cell proliferation (Cell Signaling Technology), and Caspase-Glo 3/7 apoptosis detection (Promega) assays, following the respective manufacturer's recommendations with suitable modification. Enzyme-Linked Immunosorbent Assay (ELISA) and Immunoblotting. Cells were maintained overnight in the culture media described above. […] Following the treatment, cell lysates and supernatants were collected and subjected to HE4 assay (Human HE4 Quantikine ELISA Kit, R&D Systems). The amount of HE4 in supernatant was normalized to the protein concentration of matching cell lysate. The levels of HER2 were determined by Human Total ErbB2/Her2 DuoSet IC ELISA (R&D systems. Wester blot analysis was conducted using the protocol previously published (see Kim, K. K. et al. Tetrathiomolybdate inhibits mitochondrial complex IV and mediates degradation of hypoxia-inducible factor-1alpha in cancer cells. Sci. Rep. 5, 14296, 2015). Data Acquisition and Statistical Analysis. Gene expression profiling of septins, comparing microdissected normal ovarian stroma (N=8) against that of tumor stroma samples (N=31) from high grade serous ovarian cancer patients, was obtained from Mixed Ovarian Cancer (CAFs)-Wong-77-u133p2 data-set through ‘R2: Genomics Analysis and Visualization Platform (http://r2/am/n1). Mean values with SD were plotted and compared using Student t-test (two tail, unpaired heteroscedastic t-test, significant difference when p<0.01). The prognostic assessment of septin-2 amongst different cancers or septins in endometrial cancer was conducted using TCGA data acquired through Human Protein Atlas (http://www.proteinatlas.org) (see Uhlen, M. et al. Towards a knowledge-based Human Protein Atlas. Nat. Biotechnol. 28, 1248-1250, 2010). Survival curves between septin high and low population and their statistical significance were analyzed using GraphPad Prism software (Mantel-Cox test). […] Structural Modification of FCF. […]

[2] = tested on: ECC-1 cells; assay: BrdU cell proliferation assay; format: cell-based; details: ECC-1, 48 hours
Method: Cell lines, Culture, and Reagents. Cells were maintained in either DMEM (SKOV-3, KLE, OVCAR-3, OVCAR8-C5 and IGROV-1) or RPMI-1640 (ECC-1 and HCH-1), supplemented with 10% fetal calf serum (or 20% for OVCAR-3), penicillin (100 units/mL), and streptomycin (100 μg/mL) at 37° C. with 5% CO2 in a humidified incubator. Antibodies were purchased from Abcam (septin-2; ab179436) and Cell Signaling Technology; ERK (9102), p-ERK (4370), -actin (3700), u-Tubulin (2144), EGFR (4267) and HER2 (4290). FCF was purchased from Abcam. All other chemicals were from Sigma Aldrich. Synthesis of Derivaties. […] The reaction was monitored using thin-layer chromatography plates with DCM-MeOH or pure ethyl acetate as eluent. Spots were monitored in a UV chamber. The reaction mixture, upon completion of the reaction, was poured into wet ice mixture and triturated, then the separated solid was filtered by vacuum. The product was washed with hexane, followed by diethyl ether, and was dried under vacuum. The compounds were characterized by spectrophotometric techniques. Quantitative Real-Time PCR. The indicated cell lines were transfected with siRNA targeting septin-2 or non-targeting control siRNA (Santa Cruz Biotechnology: sc-37007 or sc-40936) using Lipofectamine 3000 (Invitrogen). […] Quantitative real-time PCR was conducted using QuantStudio 12 K Flex Real-Time PCR System (ABI) and the Taqman Gene Expression Assay (ABI) consisting of the FAM-labeled probes as follows: SEPT2 (Hs01565417_ml); WFDC2 (Hs00899484_ml); TBP (Hs00427620_ml) or B2M (Hs00187842_ml), which was used as reference for normalization. […] Cell viability, proliferation, and cellular apoptosis were measured using the MTS (Promega), BrdU cell proliferation (Cell Signaling Technology), and Caspase-Glo 3/7 apoptosis detection (Promega) assays, following the respective manufacturer's recommendations with suitable modification. […] Survival curves between septin high and low population and their statistical significance were analyzed using GraphPad Prism software (Mantel-Cox test). […]

SMILES | cell viability ([1]; FCF 0, 100, 300 μM, 24 or 72 hours, time- and dose-dependent (FIG. 1)) | proliferation ([2]; BrdU, lower dose ranges) | viability of tumor cells, dose-dependent (FIG. 2E) ([1]; 72 hours, MTS) | proliferation in multiple endometrial and ovarian cancer cells ([1]; at considerably lower doses than FCF) | concentration inhibiting proliferation ([2]; BrdU (FIG. 2B))
O=C(Nc1ccccc1)Nc1ccnc(Cl)c1 [FCF, N-(2-chloro-4-pyridyl)-N′-phenylurea, reference compound] | reduced the viability | lacked activity |  |  | 
O=C(Nc1cc(Cl)nc(Cl)c1)Nc1cccc(SC(F)(F)F)c1F [UR214-9] |  |  | potent activity across most cell lines | blocked proliferation | ~4 µM and 4 to 5 µM
